Experimental data from US8058431B2, “Fluorescent double stranded DNA binding dyes” (Roche Diagnostics Operations, Inc., priority 2006, dated 2011).

How the values were obtained:
genomic DNA = assay: Light stability: fluorescence of a mixture of dye and genomic DNA during continuous light exposure; format: physicochemical; conditions: for fluorescence during continuous light exposure: dye + genomic DNA
Experimental: The light stability of R27, which is representative for the nine described dyes, was compared to established dyes already used for such applications. The fluorescence of a mixture of the respective dye and genomic DNA was measured during continuous light exposure.

[1] = Bleaching of dye solution during a typical PCR protocol on a real-time PCR instrument; format: physicochemical; conditions: excitation for fluorescence measurement and repeated temperature changes between 55 and 95° C., LIGHTCYCLER 480

fluorescence during continuous light exposure (genomic DNA; light exposure 0 min) [%]	fluorescence during continuous light exposure (genomic DNA; light exposure 10 min) [%]	fluorescence during continuous light exposure (genomic DNA; light exposure 30 min) [%]	fluorescence during continuous light exposure (genomic DNA; light exposure 60 min) [%]	fluorescence during continuous light exposure (genomic DNA; light exposure 180 min) [%]	fluorescence during continuous light exposure (genomic DNA; light exposure 300 min) [%]	light stability compared to established dyes (genomic DNA; versus SYBR Green I and LC Green Plus)	bleaching of the dye [1]	Compound
100	99	98	99	97	96	distinctly higher	no recognizable bleaching	COc1cc2c(cc1OC)N(C)C(CCCC[N+](C)(C)C)=N/C2=C\c1sc2ccccc2[n+]1C.[I-].[I-] [R 27]
100	87	77	70	40	24	–	–	CCCN(CCCN(C)C)c1cc(C=C2Sc3ccccc3N2C)c2ccccc2[n+]1-c1ccccc1 [SYBR Green I, [2-[N-(-3-dimethylaminopropyl)-N-propylamino]-4-[2,3-dihydro-3-methyl-(benzo-1,3-thiazol-2-yl)-methylidene]-1-phenyl-quinolinium]+, reference compound]
